Read-outs that look alike come from different tables or passages of the source.
How the values were obtained:
[1] = tested on: BRCA1-mutated MDA-MB-436 cells; experiment: Anti-proliferation experiment on MDA-MB-436 CTG cells; type: cell-based, human; details: 7 days incubation, CellTiter-Glo
Protocol: Experimental Example 2: Anti-Proliferation Experiment on MDA-MB-436 CTG Cells
Experimental materials: test compounds; RPMI-1640 medium; fetal bovine serum; penicillin/streptomycin antibiotic; MDA-MB-436 cell line; Envision multi-marker analyzer (PerkinElmer).
MDA-MB-436 cells were seeded in a white 96-well plate by adding 80 μL of cell suspension (containing 3000 MDA-MB-436 cells) to each well. The cell plate was incubated in a CO2 incubator overnight.
Test compounds were serially 5-fold diluted to the 8th concentration with a multichannel pipette, i.e. from 2 mM to 26 nM, and a duplicate well experiment was performed. 78 μL of medium was added to a intermediate plate, 2 μL of each of serially diluted compounds was transferred to corresponding wells of the intermediate plate, and after mixing, the mixture was transferred to the cell plate at 20 μL per well. The cell plate was incubated in a CO2 incubator for 7 days. Another cell plate was provided for reading signal values on the day of compound addition and these signal values were used as Max values in data analysis. Promega CellTiter-Glo was added to this cell plate at 25 μL per well and the luminescence signals were stabilized by incubation for 10 min at room temperature. Readings were taken using a PerkinElmer Envision multi-marker analyzer.
Promega CellTiter-Glo was added to the cell plate at 25 μL per well and the luminescence signals were stabilized by incubation for 10 min at room temperature. Readings were taken using a PerkinElmer Envision multi-marker analyzer.
2. Data analysis: the original data was converted to inhibition using the equation (sample−Min)/(Max−Min)×100%, and the IC50 value was then curve fitted using four parameters (obtained from the “log(inhibitor) vs. response-variable slope” model in GraphPad Prism). Table 2 provides the inhibitory activity of the compounds disclosed herein against MDA-MB-436 cell proliferation.

[2] = Plasma protein binding rate, CD-1 mouse plasma (equilibrium dialysis); type: in vitro ADME; details: CD-1 mice plasma, dialysis 4 h at 37° C.
Protocol: Experimental Example 5: Study on Plasma Protein Binding Rate
The protein binding rates of the compounds disclosed herein in plasma of human, CD-1 mice and SD rats were determined. 796 μL of blank plasma was taken from human, CD-1 mice and SD rats, and added with 4 μL of test compound working solution (400. μM) or warfarin working solution (400 μM) to achieve a final concentration of 2 μM of both the test compound and the warfarin in the plasma sample. The samples were mixed well. The final concentration of organic phase DMSO was 0.5%; 50 μL of test compound and warfarin plasma sample was pipetted into a sample receiving plate (three parallels), and a corresponding volume of blank plasma or buffer was immediately added such that the final volume of each sample well was 100 μL. The volume ratio of plasma to dialysis buffer was 1:1, and 400 μL of stop solution was added to these samples, which were used as TO samples for determination of recovery rate and stability. The TO samples were stored at 2-8° C. for subsequent treatment with other dialyzed samples; 150 μL of the test compound and warfarin plasma sample was added to a drug delivery end of each dialysis well, and 150 μL of blank dialysis buffer was added to a corresponding receiving end of the dialysis well. The dialysis plate was then sealed with a gas permeable membrane and placed in a humid, 5% CO2 incubator and incubated at 37° C. for 4 h while shaking at about 100 rpm. After the dialysis was completed, 50 μL of the dialyzed buffer sample and dialyzed plasma sample were pipetted to a new sample receiving plate. A corresponding volume of corresponding blank plasma or buffer was added to the samples such that the final volume of each sample well was 100 μL, and the volume ratio of plasma to dialysis buffer was 1:1. All samples were subjected to LC/MS analysis after protein precipitation, and the protein binding rates and the recovery rates were calculated by the following formulas: protein unbinding rate (%)=100×drug concentration passing through dialysis membrane/drug concentration not passing through dialysate; protein binding rate (%)=100−protein unbinding rate (%); recovery rate (%)=100×(drug concentration passing through dialysis membrane+drug concentration not passing through dialysate)/total drug concentration before dialysis.

[3] = Metabolic stability in liver microsomes, rat; type: in vitro ADME; details: Rat liver microsomes 0.5 mg/mL, 1 μM compound, NADPH, 37° C.
Protocol: Experimental Example 7. Metabolic Stability in Liver Microsomes
Experimental objective: to test the metabolic stability of test compounds in liver microsomes of three species.
Experimental method: 1 μM test compound and a microsome (0.5 mg/mL) were incubated at 37° C. in the presence of an NADPH regeneration system; positive controls were testosterone (3A4 substrate), propylamine propiophenone (2D6 substrate) and diclofenac (2C9 substrate), and also at 37° C., a positive control was incubated with a microsome (0.5 mg/mL) in the presence of an NADPH regenerating system; the reaction was stopped by direct mixing of the sample with cold acetonitrile containing an internal standard at various time points (0, 5, 10, 20, 30 and 60 min); the compound and microsome were incubated for 60 min in the absence of an NADPH regenerating system; one parallel (n=1) was set at each time point; the samples were analyzed by LC/MS/MS; the concentration of the compound was characterized by the ratio of the analyte peak area to the internal standard peak area.

[4] = Single-dose pharmacokinetic study in mice; type: in vivo; details: male C57BL/6 mice; for Maximum concentration / bioavailability / clearance / half-life / Vd: IV: 1 mg/kg PO: 5 mg/kg; for bioavailability / clearance / half-life / Vd / AUC(0-t): mouse, plasma; for Vd: read-out: Apparent volume of distribution
Description: Experimental Example 8: Single-Dose Pharmacokinetic Study in Mice
Experimental objective: to evaluate the pharmacokinetic behavior by using male C57BL/6 mice as test animals and determining the drug concentrations of the compounds in the plasma, liver and cerebrospinal fluid after single-dose administration.
Experimental method: healthy adult male C57BL/6 mice were selected for intragastric administration. A candidate compound was mixed with an appropriate amount of 10% DMSO/90% (20% hydroxypropyl-β-cyclodextrin), vortexed and sonicated to prepare a 0.5 mg/mL clear solution for later use. After the mice were administered intravenously at 1 mg/kg and orally at 5 mg/kg, whole blood was collected at certain time points, and plasma was separated, and liver and cerebrospinal fluid were collected. After pretreatment of the samples, the drug concentration was measured by LC-MS/MS, and pharmacokinetic parameters were calculated using Phoenix WinNonlin software.

[5] = Homo sapiens, MDA-MB-436, 168 h
[6] = intravenous 1 mg/kg, read-out: AUC0-last (intravenous injection)
[7] = oral 5 mg/kg, read-out: AUC0-last (oral)

Row | Structure (SMILES) | IC50 [1, 5] [nM] | fraction unbound at 4 h, 2 μM [2] | Residual content after 60 min of incubation [3] [%] | Maximum concentration [4] [nM] | bioavailability [4] [%] | clearance [4] [mL/min/kg] | half-life [4] [min] | Vd [4] [L/kg] | AUC(0-t) [4, 6] [µM·h] | AUC(0-t) [4, 7] [µM·h] | IC50 [1] [nM]
1 | CC1(c2ccc(-c3[nH]c4cc(F)cc5c4c3CONC5=O)cc2)CCCN1 (stereo not drawn) [Example 25_A] | 12.3 | 0.104 | 31.8 | 240 | 24.8 | 41 | 181 | 9.44 | 0.958 | 1.19 | 
2 | CC1(c2ccc(-c3[nH]c4cc(F)cc5c4c3CONC5=O)cc2F)CCCN1 (single isomer, unassigned) [Example 26_A] |  | 0.08 | 34.5 | 285 | 37.9 | 60.7 | 129 | 8.22 | 0.679 | 1.29 | 8.4
3 | CC1(c2ccc(-c3[nH]c4cccc5c4c3CONC5=O)cc2)CCCN1 (stereo not drawn) [Example 6_A] | 16.9 | 0.208 | 55.4 |  |  |  |  |  |  |  | 
4 | O=C1NOCc2c(-c3ccc(C4CCCN4)cc3)[nH]c3cc(F)cc1c23 (single isomer, unassigned) [Example 24_A] |  | 0.037 | 60.6 | 433 | 21.2 | 34.9 | 122 | 4.21 | 1.3 | 1.38 | 9.6
5 | O=C1NOCc2c(-c3ccc(C4CCCN4)c(F)c3)[nH]c3cccc1c23 (stereo not drawn) [Example 11_A] | 70.2 | 0.101 | 58.1 |  |  |  |  |  |  |  | 
